The source of these data is patent US20050074777A1, “Novel cell-surface estrogen receptor and related compositions and methods” (priority 2002, published 2005).

Assay [1] concerns ERK1/2 phosphorylation. Conditions: neocortical explants (Singh, 2000); cited from earlier work.
The subject of assay [2] is ERK1/2 phosphorylation. The experiment in a line: ERK1/2 phosphorylation in post-nuclear supernatant (PNS), cell-free system. Type of assay: biochemical, mouse. As to conditions: for phosphorylation of ERK1 and ERK2: P7 wild-type neocortical PNS, 10 minutes, 37° C. From the text: Isolation of post-nuclear supernatant (PNS). To increase the yield of ER-X and to test in a cell-free system whether the presence of ER-α is inhibitory for ERK activation, as had been shown previously in neocortical cultures (Singh, 2000), PNS, a cell-free system which contains all the cell organelles except the nucleus, was studied. PNS was isolated from P7 wild-type and ERKO neocortices according to the method of Smart et al. (Smart, 1995). Three to four P7 wild-type and ERKO neocortices were homogenized using a teflon homogenizer in 1 ml of 20 mM Tricine, pH 7.8 buffer, containing 1 mM EDTA, 0.25M sucrose, 10 μg/ml aprotinin and 1 μg/ml leupeptin. The homogenate was centrifuged at 1000×g at 4° C. for 10 minutes. The supernatant obtained is the PNS. The pellet was resuspended in 500 μl of the homogenization buffer, re-centrifuged, and the PNS obtained was pooled with the first PNS. ERKO and wild-type PNS were mixed with 10X phosphorylation buffer, and the MAPK assay was performed as described above.

In assay [3] the test system is ER-X (plasma-membrane estrogen binding site of P7 ERKO neocortex). Description: Specificity (competition) of 3H-estradiol binding in Percoll-purified P7 ERKO neocortical membranes. Further details: species or system mouse. As to conditions: 2 nM 3H-estradiol, 18 hours at 4° C. As to the method:
Binding of ^3H estradiol to Percoll®-purified plasma-membranes from P7 ERKO and wild-type mouse neocortex. (a) Identical amounts of membrane protein (50 μg/tube) were incubated with varying concentrations of ^3H estradiol (0.3-8 nM) for 18 hours at 4° C. The reaction was terminated by addition of hydroxylapatite (HAP). The membranes and HAP were sedimented by centrifugation in a microfuge, and the pellet washed 4 times to remove free steroid. Radioactivity in the pellets was extracted with ethanol and counted. […] (b) Specificity of the binding site in Percoll®-purified membranes from P7 ERKO mouse neocortex. […] Bound ^3H estradiol was separated by sedimentation with HAP and counted at an efficiency of 50%. Data represent the number of bound counts (after subtraction of HAP-only blank control tubes, containing no membrane protein) expressed as the means +/−S.D. of triplicate determinations. The horizontal dashed line indicates the level of non-specific binding observed in the presence of 1 μM DES. Estrogen binding assay. Duplicate aliquots of 1 mg each of protein lysate from ERKO P7 neocortex or wild-type adult uterus were pre-cleared for 30 minutes using anti-rabbit-IgG-coated magnetic beads (Dynal AS). Pre-cleared protein lysates were immunoprecipitated with anti-ER-α antibodies (6F11, Novocastra; or MC20, Santa Cruz) at 4° C. overnight. […] NEN Life Sciences, Boston, Mass.) at 4° C. for 18 hours. The incubation was terminated by adsorption of the binding sites onto an equal volume of hydroxylapatite (HAP) slurry in TESD buffer. HAP pellets were washed four times with Tris-buffered saline containing 0.2% Tween-20 buffer and extracted with 1 ml absolute ethanol overnight at room temperature. The ethanol supernatants were transferred to liquid scintillation fluid (5 ml) and counted. Control tubes, used in assessing HAP adsorption of free steroid, contained HAP and the same buffer constituents, without addition of the membranes. Non-specific binding was assayed in the membranes using the same amount of radioactive ligand plus 200-fold molar excess of unlabeled diethylstilbestrol (DES) (Sigma-Aldrich). Specific binding was calculated by subtracting non-specific from total binding.

The subject of assay [4] is ERK1/2 phosphorylation. Description: Phosphorylation of ERK1/2 in ERKO CLM and non-CLM preparations. Type of assay: biochemical, mouse. Conditions: for phosphorylation of ERK1/2: 30 minutes. As to the method: Phosphorylation of ERK1/2 in CLM and non-CLM preparations. Phosphorylation of ERK1/2 in ERKO CLM and non-CLM preparations was examined following the method of Liu et al. (Liu, 1997), except that basal medium Eagle (BME) was used in the place of MEM. Nine parts of CLM or non-CLM preparations were mixed with one part of 10×BME, pH 7.4 containing BSA 800 μg/ml, 10 mM NaF, 2 mM Na3VO4, leupeptin 100 μg/ml, soybean trypsin inhibitor 100 μg/ml, 10 mM MgCl2, and 1 mM ATP. […] Cell Signaling Technology, Beverly, Mass.) for 30 minutes prior to pulsing them with the appropriate estradiol. […] (Singh, 1999; and Singh, 2000).

For assay [5], the system named is ERK1/2 phosphorylation. Description: ERK1/2 phosphorylation in neocortical explant cultures (Western immunoblot). Type of assay: cell-based, mouse. As to conditions: wild-type neocortical cultures.
Experimental: Neocortical cultures. Organotypic explant cultures, obtained from 360 pm hemi-coronal slices of the frontal and cingulate neocortex of P2 wild-type and ERKO mice (day of birth =P1), were explanted onto collagen-coated, poly-D-lysine pre-coated coverslips and maintained in roller tube culture with gonadal steroid-deficient (gelding serum) and phenol red-free nutrient medium, as previously described (Singh, 1999; and Singh, 2000). The nutrient medium was supplemented with 17β-estradiol (2 nM; Sigma-Aldrich, St. Louis, Mo.) for one week, in order to optimize the development of CNS cultures from estrogen target regions. […]
Antibody binding to protein was detected using a secondary antibody conjugated to horseradish peroxidase (1:40,000; Pierce Chemical Company, Rockford, Ill.), and visualized autoradiographically on film using enzyme-linked chemiluminescence (ECL®; Amersham Pharmacia Biotech) (Singh et, 1999; and Singh, 2000). All blots were stripped and re-probed with the appropriate antibody to verify equal loading of protein across lanes and were analyzed densitometrically. […]
Assay [6] has as its system estrogen-binding protein (ER-X). Description: DES-sensitive 3H-estradiol binding in CLM preparations and lysates. Further details: species or system mouse. Conditions: unlabeled competitor in excess. As to the method: Caveolar-like membrane (CLM) preparation. Membrane fractions were prepared by adapting the detergent-free method of Smart et al. (Smart, 1995). Briefly, pools of 40-50 P7 ERKO neocortices were homogenized in 20 mM Tricine, pH 7.8 buffer, containing 1 mM EDTA, 0.25M sucrose and 1 mM dithiothreitol (TESD buffer), then centrifuged at 1000×g at 4° C. for 10 minutes. The pellet was resuspended in TESD buffer, re-centrifuged, and the supernatants pooled. The combined supernatants were subjected to Percoll® gradient fractionation in the same buffer to isolate the plasma membrane fraction. In some binding experiments (indicated below), Percoll® purified plasma membranes were used without further fractionation. For preparation of CLMs, plasma-membranes were sonicated and further separated by centrifugation on a linear 20% to 10% OptiPrep (iodixanol) gradient (Nycomed Pharma AS, Oslo, Norway). Based upon their light buoyant density, CLMs were separated and purified from non-CLMs using two OptiPrep density gradients. […] Electrophoretically separated CLMs on PVDF membranes were probed with antibodies specific for ER-α ([…], UBI; MC20, Santa Cruz), ER-β (Zymed), flotillin (BD Transduction Labs) and other caveolar-resident proteins (PKC-α and PKC-γ, BD Transduction Labs) and non-caveolar-resident proteins (paxillin, BD Transduction Labs). Estrogen binding assay. Duplicate aliquots of 1 mg each of protein lysate from ERKO P7 neocortex or wild-type adult uterus were pre-cleared for 30 minutes using anti-rabbit-IgG-coated magnetic beads (Dynal AS). Pre-cleared protein lysates were immunoprecipitated with anti-ER-α antibodies (6F11, Novocastra; or MC20, Santa Cruz) at 4° C. overnight. […] NEN Life Sciences, Boston, Mass.) at 4° C. for 18 hours. The incubation was terminated by adsorption of the binding sites onto an equal volume of hydroxylapatite (HAP) slurry in TESD buffer. HAP pellets were washed four times with Tris-buffered saline containing 0.2% Tween-20 buffer and extracted with 1 ml absolute ethanol overnight at room temperature. The ethanol supernatants were transferred to liquid scintillation fluid (5 ml) and counted. Control tubes, used in assessing HAP adsorption of free steroid, contained HAP and the same buffer constituents, without addition of the membranes. Non-specific binding was assayed in the membranes using the same amount of radioactive ligand plus 200-fold molar excess of unlabeled diethylstilbestrol (DES) (Sigma-Aldrich). Specific binding was calculated by subtracting non-specific from total binding.

In assay [7] the test system is ERK1/2 phosphorylation. The experiment in a line: Cholesterol depletion: ERK1/2 phosphorylation in neocortical explants pre-treated with Nystatin. As to conditions: P9 wild-type neocortical explants, 50 μg/ml for 1 hour before a 30 minute pulse. It is filed as cell-based, mouse. As to the method:
Cholesterol depletion. To determine whether disruption of CLMs impairs estrogen activation of the MAPK cascade, neocortical explants were pre-treated on P9 with the sterol binding agent Nystatin (50 μg/ml) (Sigma-Aldrich), a compound used extensively to document the association of growth factor receptors with caveolae/CLMs (Huang, 1999). […] P9 neocortical explants were exposed to Nystatin (50 μg/ml) (Sigma-Aldrich), BDNF (10 ng/ml) or vehicle control (PBS) for 1 hour prior to pulsing with 10 nM 17β-estradiol for 30 minutes in the continued presence of Nystatin, BDNF or vehicle. Explants were then analyzed by Western immunoblot analysis for phospho-ERK expression using antibodies to phosphorylated p44/42 MAP Kinase (ERK1/2, Thr202/Tyr204; Cell Signaling Technology), as previously described (Singh, 1999; and Singh, 2000).

Where [8] appears, read: 1 μM unlabelled competitor (500-fold molar excess).

The structures appear in SMILES notation. “Also recorded” adds a separate entry of the source.

As for `C[C@]12CC[C@@H]3c4ccc(O)cc4CC[C@H]3[C@@H]1C[C@@H](I)[C@@H]2O` [16α-iodo-17β-estradiol], in assay [1], the “activation of ERK1/2 by ER-α- or ER-β-selective ligands” value is listed as “not activated”.
Consider `C[C@]12CC[C@@H]3c4ccc(O)cc4CC[C@H]3[C@@H]1CC[C@H]2O` [17α-estradiol], for which, in assay [2] (0.1 nM), the “phosphorylation of ERK1 and ERK2” value was “elicited MEK-dependent (U0126) phosphorylation of ERK1 and ERK2”. Besides, the “inhibition of binding of 3H-estradiol” value in assay [3] (50 nM unlabelled competitor) is listed as “markedly inhibited”; in assay [3] (setting [8]) it was “reduced to the non-specific levels”. For the same compound, the “phosphorylation of ERK1/2” value in assay [4] (P7 ERKO neocortical CLMs, 0.1 nM) is given as “elicited phosphorylation of ERK1/2”; in assay [4] (non-CLM regions of the plasma membrane, 0.1 nM) it was “did not respond”.
With `C[C@]12CC[C@@H]3c4ccc(O)cc4CC[C@H]3[C@@H]1CC[C@@H]2O` [17β-estradiol], the “phosphorylation of ERK1 and ERK2” value in assay [2] (10 nM) was “significantly less than the levels following exposure to 17α-estradiol; also recorded: elicited MEK-dependent (U0126) phosphorylation of ERK1 and ERK2”. The “concentration range eliciting activation of ERK1/2” value in assay [5] lay within 0.1 to 10 nM. Moreover, the “inhibition of binding of 3H-estradiol” value in assay [3] (50 nM unlabelled competitor) was “markedly inhibited”; in assay [3] (setting [8]) it was “reduced to the non-specific levels”. Besides, the “phosphorylation of ERK1/2” value in assay [4] (P7 ERKO neocortical CLMs, 10 nM) is “elicited phosphorylation of ERK1/2”; in assay [4] (non-CLM regions of the plasma membrane, 10 nM), “did not respond”.
Consider `CC/C(=C(/CC)c1ccc(O)cc1)c1ccc(O)cc1` [DES, diethylstilbestrol], for which the “effect on binding of 10 nM 3H-estradiol to P7 ERKO CLMs” value in assay [6] is reported as “suppressed”.
Take `C[C@@H]1[C@H](O)[C@@H](C)/C=C/C=C/CC/C=C/C=C/C=C/C=C/C(O[C@H]2O[C@H](C)[C@@H](O)[C@H](N)[C@@H]2O)CC2O[C@](O)(CC(O)C(O)CCC(O)CC(O)CC(O)CC(=O)O[C@H]1C)CC(O)C2C(=O)O` (stereo partly shown) [Nystatin]: in assay [7], the “effect on ERK1/2 phosphorylation elicited by 17β-estradiol (10 nM) and BDNF” value was “decreased the ability of both estradiol and BDNF to elicit ERK1/2 phosphorylation”.
Take `N#CC(=C(/N)Sc1ccccc1N)/C(C#N)=C(\N)Sc1ccccc1N` [U0126]: the “effect on estradiol-induced ERK1/2 phosphorylation” value in assay [2] (wild-type neocortical PNS, 10 μM) is listed as “inhibited”. Also, the “effect on estradiol-induced ERK activation” value in assay [4] (P7 ERKO neocortical CLMs, 10 μM, 30 minutes pre-treatment) is recorded as “inhibited”.
Turning to `O=c1oc2cc(O)ccc2c2oc3cc(O)ccc3c12` [coumestrol], the “activation of ERK1/2 by ER-α- or ER-β-selective ligands” value in assay [1] is “not activated”.
Regarding `O=c1c(-c2ccc(O)cc2)coc2cc(O)cc(O)c12` [genistein], the “activation of ERK1/2 by ER-α- or ER-β-selective ligands” value in assay [1] is on record as “not activated”.
For the compound `CC(=O)[C@H]1CC[C@H]2[C@@H]3CCC4=CC(=O)CC[C@]4(C)[C@H]3CC[C@]12C` [progesterone], in assay [3] (setting [8]), the “inhibition of binding of 3H-estradiol” value is “only partially suppressing binding”.
